These results are taken from patent US12268683B2, “Compounds and methods for synergistic activation of M channels” (THE REGENTS OF THE UNIVERSITY OF CALIFORNIA, priority 2018, dated 2025).

In assay [1] the test system is pentylene tetrazole-induced seizures. Kind of assay: PTZ chemoconvulsant assay. As to conditions: for clonic seizure incidence: alone. It is filed as in vivo, mouse. The text has this:
We compared anticonvulsant activities of test compounds in male C57BL/6 mice (Charles River) aged 2-3 months. Mice were housed and used according to the recommendations in the Guide for the Care and Use of Laboratory Animals of the National Institutes of Health (NIH Publication, 8th edition, 2011). The study protocol was approved by the Institutional Animal Care and Use Committee of University of California, Irvine, which confirmed that all relevant ethical regulations were adhered to. Chemicals were sourced from Sigma (St. Louis, Mo., USA). A pentylene tetrazole (PTZ) chemoconvulsant assay was used-. […] Following the PTZ injection, mice were caged individually and an observer (GWA) blinded to the drug used recorded, over 20 min, clonic and tonic seizure incidence, and seizure-related mortality.
We quantified the anticonvulsant activities of (E)-2-dodecenal and tridecanal in male C57BL/6 mice (Charles River, Wilmington, Mass.) aged 2-3 months. The mice were housed and used according to the recommendations in the Guide for the Care and Use of Laboratory Animals of the National Institutes of Health (NIH Publication, 8th edition, 2011). The study protocol was approved by the Institutional Animal Care and Use Committee of University of California, Irvine. The chemicals were sourced from Sigma (St. Louis, Mo., USA). We used a pentylene tetrazole (PTZ) chemoconvulsant assay as we previously described (30). We injected the mice intraperitoneally with (E)-2-dodecenal (2 or 20 mgkg^−1) (with or without 2.5 mgkg^−1 XE991) or tridecanal (20 mgkg^−1) solubilized in PBS, or vehicle control (PBS), and then 30 minutes later we injected mice intraperitoneally with 80 mgkg-PTZ. Following the PTZ injection, the mice were caged individually and an observer (GWA) blinded to the experimental condition timed the latency to first seizure.
We compared anticonvulsant activities of 3FMSG in male C57BL/6 mice (Charles River) aged 2-3 months. Mice were housed and used according to the recommendations in the Guide for the Care and Use of Laboratory Animals of the National Institutes of Health (NIH Publication, 8th edition, 2011). The study protocol was approved by the Institutional Animal Care and Use Committee of University of California, Irvine, which confirmed that all relevant ethical regulations were adhered to. Chemicals were sourced from Sigma (St. Louis, Mo., USA). We used a pentylene tetrazole (PTZ) chemoconvulsant assay as we previously described^27. Mice were injected intraperitoneally with 3FMSG (5 mg kg^−1) or vehicle control (PBS) and then 30 minutes later injected intraperitoneally with 80 mg kg^−1 PTZ. Following the PTZ injection, mice were caged individually and an observer (GWA) blinded to the drug used recorded seizure activity over 20 minutes.

For the next assay, the target named is KCNQ2/3 (Homo sapiens, UniProt O43525+O43526). Kind of assay: TEVC of heteromeric KCNQ2/3 channels expressed in Xenopus laevis oocytes. In kind it is cell-based. The text has this: cRNA transcripts encoding human KCNA1, KCNQ1, KCNQ2, KCNQ3, KCNQ4, or KCNQ5 were generated by in vitro transcription using the T7 polymerase message machine kit (Thermo Fisher Scientific), after vector linearization, from cDNA sub-cloned into plasmids incorporating X. laevis β-globin 5′ and 3′ UTRs flanking the coding region to enhance translation and cRNA stability. cRNA was quantified by spectrophotometry. Mutant cDNAs were generated by site-directed mutagenesis using a QuikChange kit according to manufacturer's protocol (Stratagene, San Diego, Calif.) and corresponding cRNAs prepared as above. Defolliculated stage V and VI X. laevis oocytes (Ecocyte Bioscience, Austin, Tex.) were injected with Kv channel a subunit cRNAs (10 ng total per oocyte). Oocytes were incubated at 16° C. in Barth's saline solution (Ecocyte) containing penicillin and streptomycin, with daily washing, for 3-5 days prior to two-electrode voltage-clamp (TEVC) recording.
TEVC recording was performed at room temperature with an OC-725C amplifier (Warner Instruments, Hamden, Conn.) and pClamp10.2 software (Molecular Devices, Sunnyvale, Calif.) 3-5 days after cRNA injection as described in the section above. Oocytes were placed in a small-volume oocyte bath (Warner) and viewed with a dissection microscope. Chemicals were sourced from Sigma. Bath solution was (in mM): 96 NaCl, 4 KCl, 1 MgCl2, 1 CaCl2. 10 HEPES (pH 7.6). […] MTX (DMSO), sorbic acid (ethanol), and glutaconic acid (molecular grade H2O) were stored at −20° C. as 1 M stocks. Oleamide was stored as a 1 mM stock in ethanol at 4° C. Palmitic acid was conjugated with bovine serum albumin as a 1 mM stock and stored at −20° C. All compounds were diluted to working concentrations each experimental day. All compounds were introduced to the recording bath via gravity perfusion at a constant flow of 1 ml/min for 3 min prior to recording. Pipettes were of 1-2 MΩ resistance when filled with 3 M KCl. Currents were recorded in response to pulses between −80 and +40 mV at 20 mV intervals, or a single pulse to +40 mV, from a holding potential of −80 mV, to yield current-voltage relationships, current magnitude, and for quantifying activation rate. TEVC data analysis was performed with Clampfit10.2 (Molecular Devices) and Graphpad Prism software (GraphPad, San Diego, Calif., USA); values are stated as mean±SEM. Normalized tail currents were plotted versus prepulse voltage and fitted with a single Boltzmann function: […]
cRNA transcripts encoding human KCNQ2, KCNQ3, KCNQ4, KCNQ5 (Kv7.2-Kv7.5) were generated by in vitro transcription using the T7 polymerase mMessage mMachine kit (Thermo Fisher Scientific), after vector linearization, from cDNA sub-cloned into plasmids incorporating Xenopus laevis β-globin 5′ and 3′ UTRs flanking the coding region to enhance translation and cRNA stability. cRNA was quantified by spectrophotometry. Mutant KCNQ2 and KCNQ3 cDNAs were generated with site-directed mutagenesis using a QuikChange kit according to the manufacturer's protocol (Stratagene, San Diego, Calif.) and corresponding cRNAs prepared as above.

“Also recorded” adds a separate entry of the source. Like-named read-outs stand apart in the source and are kept apart here. Where only a bound is given, the exact number is not on record here.

As for `CS(=O)(=O)N(CC(=O)O)c1cccc(F)c1` [3FMSG], the “incidence of PTZ-induced tonic seizures” value in assay [1] (5 mg/kg i.p.) is listed as “reduced by threefold”. Moreover, the “effect on KCNQ2/3 gating kinetics” value on KCNQ2/3 was “speeded KCNQ2/3 activation and slowed its deactivation”. For the same compound, at KCNQ2/3 (100 μM, −60 mV), the “tau of KCNQ2/3 current decrease during washout” value came to 39 ± 10 s and the “tau of KCNQ2/3 current increase during wash-in” value was found to be 15 ± 3 s. The EC50 at KCNQ2/3 (Example 4, read-out: EC50, shift in voltage dependence of KCNQ2/3 activation (ΔV0.5act)) amounted to 51 ± 21 nM.

With `CCCCCCCCC/C=C/C=O` [(E)-2-dodecenal], the “latency to first PTZ-induced seizure” value in assay [1] (2 mgkg−1 i.p.) is reported as “threefold”; in assay [1] (20 mgkg−1 i.p.) it was “> threefold”. On KCNQ2/3, the “effect on KCNQ2/3 activity (in words)” value is listed as “activated KCNQ2/3”. Further, the “shift in voltage dependence of KCNQ2/3 activation” value at KCNQ2/3 (100 nM) was above 10 mV. The EC50 at KCNQ2/3 (wild-type KCNQ2/3, read-out: EC50 of KCNQ2/3 activation by (E)-2-dodecenal) is 60 ± 20 nM.

Take `CC(=O)c1c(O)c(C)c(O)c(Cc2c(O)c3c(c(C(=O)/C=C/c4ccccc4)c2O)OC(C)(C)C=C3)c1O` [MTX, mallotoxin]: the clonic seizure incidence entry in assay [1] (10 mg/kg i.p.) is “neither compound reduced clonic seizures alone”; in assay [1] (20 mg/kg i.p.) it was “halved”. For the same compound, in assay [1] (individually), the “suppression of PTZ-induced tonic seizures” value is listed as “ineffective”. In addition, the “effect on KCNQ2/3 gating kinetics” value at KCNQ2/3 was “speeded KCNQ2/3 activation and slowed deactivation”. For the same compound, the “effect on KCNQ2/3 at low dose” value at KCNQ2/3 (1 μM alone) was “negligible effects”. Further, the “effect on voltage dependence of KCNQ2/3 activation, screen of M. oppositifolius leaf compounds” value on KCNQ2/3 (100 μM, MTX and palmitic acid 30 μM) is on record as “negative-shifted”. In addition, the “effect on KCNQ2/3 at +40 mV” value on KCNQ2/3 (+40 mV) is “little effect”. The “relative ion permeability of KCNQ2/3 compared to K+” value at KCNQ2/3 (MTX 30 μM, 100 mM ion) was “increased relative permeability of KCNQ2/3 to Na^+ and Cs^+, and decreased permeability to Rb^+”. The “shift of V0.5 of KCNQ2/3 activation (ΔV0.5)” value on KCNQ2/3 (RTG 10 μM, MTX 30 μM, IVA 500 μM, alone or in combination) was −17 mV. The EC50 on KCNQ2/3 (current at −60 mV, read-out: EC50 of KCNQ2/3 activation) was found to be 11500 nM. The “time to plateau of KCNQ2/3 activation on wash-in” value on KCNQ2/3 (−60 mV) is recorded as 5 min. For the same compound, the KCNQ2/3 current fold-increase result on KCNQ2/3 (−60 mV, 100 μM MTX) is on record as “seven-fold”; at KCNQ2/3 (−60 mV, MTX 30 μM, IVA 500 μM alone or in combination) it was “fivefold”.

`NCC1(CC(=O)O)CCCCC1` [gabapentin, reference compound]: on KCNQ2/3, the “effect on KCNQ2/3 activity (in words)” value is recorded as “potently activated”; the “effect on KCNQ2/3 gating kinetics” value was “speeded KCNQ2/3 activation and slowed deactivation”; the “potency on KCNQ2/3, fold more potent than GABA” value is recorded as 200 fold. The “shift in voltage dependence of KCNQ2/3 activation” value on KCNQ2/3 (1 μM gabapentin) is reported as −9 mV. Moreover, the “washout of effect on KCNQ2/3” value at KCNQ2/3 (after 2 minutes) is below 50%. The EC50 at KCNQ2/3 (current at −60 mV, read-out: EC50 for KCNQ2/3 activation) amounted to 4.2 nM. For the same compound, on KCNQ2/3 (unclamped oocytes), the “shift of membrane potential (EM) of KCNQ2/3-expressing oocytes” value is on record as above −10 mV. Also, the “time to plateau of KCNQ2/3 current augmentation on wash-in” value on KCNQ2/3 (−60 mV) was around 2 min. This compound also came in with a KCNQ2/3 current fold-increase on KCNQ2/3 (−60 mV, 10 nM) of 3.5 fold.

As to `NCC(=O)O` [glycine, reference compound], the “effect on KCNQ2/3 activity (in words)” value on KCNQ2/3 is “nor does it activate KCNQ2/3; also recorded: no effect”.
